Data published in patent US20250197369A1, “NOVEL HETEROCYCLIC INHIBITOR FOR HISTONE DEACETYLASE, AND PHARMACEUTICAL COMPOSITION COMPRISING SAME” (SOOKMYUNG WOMEN'S UNIVERSITY INDUSTRY-ACADEMIC COOPERATION …, priority 2022, published 2025).

Tests used:
[1] = target: HDAC6 (Homo sapiens (Human), UniProt Q9UBN7); assay: HDAC6 inhibitory activity (fluorogenic HDAC substrate); format: biochemical; details: culture 30° C. for 1 hour
Protocol: (§1) 2×HDAC enzymes were dispensed in each well of the reaction plate except for the control well without HDAC enzyme, and buffer was dispensed in the control well without the enzyme. Using acoustic technology (Echo550, nanoliter range), compounds dissolved in 100% DMSO were added to the enzyme mixture, spun down, and pre-cultured at room temperature for 10 minutes. All reaction wells were placed with a 2× substrate mixture (fluorogenic HDAC substrate) to initiate the reaction and then spun down. Culture was performed at 30° C. for 1 hour for HDAC6 and 2 hours for HDAC8.
(§2) Afterwards, a developer was added along with trichostatin A to halt the reaction and develop fluorescence. Dynamics measurements were performed with Envision (Ex/Em=360/460 nm) for 20 minutes with 5-minute intervals, and values from endpoint reading were taken for analysis after the phenomenon reached a plateau.

[2] = target: HDAC8 (Homo sapiens (Human), UniProt Q9BY41); assay: HDAC8 inhibitory activity (fluorogenic HDAC substrate); format: biochemical; details: culture 30° C. for 2 hours
HDAC8, sequence (Q9BY41 whole entry, species assumed): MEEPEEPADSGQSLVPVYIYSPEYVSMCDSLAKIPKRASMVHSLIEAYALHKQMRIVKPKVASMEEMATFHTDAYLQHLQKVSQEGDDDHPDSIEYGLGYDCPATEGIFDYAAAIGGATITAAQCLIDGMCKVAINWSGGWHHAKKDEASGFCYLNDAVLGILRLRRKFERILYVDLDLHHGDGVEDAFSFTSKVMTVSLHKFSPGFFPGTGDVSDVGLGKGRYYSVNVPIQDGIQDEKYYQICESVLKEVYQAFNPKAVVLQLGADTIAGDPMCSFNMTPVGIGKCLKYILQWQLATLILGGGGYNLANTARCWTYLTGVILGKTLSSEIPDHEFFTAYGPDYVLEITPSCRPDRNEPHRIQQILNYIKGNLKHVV
Protocol: as §1, §2

[3] = MS (in mouse); format: in vitro ADME; parameters: unit not given here
[4] = MS (in human); format: in vitro ADME; parameters: unit not given here

HDAC6, sequence (Q9UBN7 whole entry): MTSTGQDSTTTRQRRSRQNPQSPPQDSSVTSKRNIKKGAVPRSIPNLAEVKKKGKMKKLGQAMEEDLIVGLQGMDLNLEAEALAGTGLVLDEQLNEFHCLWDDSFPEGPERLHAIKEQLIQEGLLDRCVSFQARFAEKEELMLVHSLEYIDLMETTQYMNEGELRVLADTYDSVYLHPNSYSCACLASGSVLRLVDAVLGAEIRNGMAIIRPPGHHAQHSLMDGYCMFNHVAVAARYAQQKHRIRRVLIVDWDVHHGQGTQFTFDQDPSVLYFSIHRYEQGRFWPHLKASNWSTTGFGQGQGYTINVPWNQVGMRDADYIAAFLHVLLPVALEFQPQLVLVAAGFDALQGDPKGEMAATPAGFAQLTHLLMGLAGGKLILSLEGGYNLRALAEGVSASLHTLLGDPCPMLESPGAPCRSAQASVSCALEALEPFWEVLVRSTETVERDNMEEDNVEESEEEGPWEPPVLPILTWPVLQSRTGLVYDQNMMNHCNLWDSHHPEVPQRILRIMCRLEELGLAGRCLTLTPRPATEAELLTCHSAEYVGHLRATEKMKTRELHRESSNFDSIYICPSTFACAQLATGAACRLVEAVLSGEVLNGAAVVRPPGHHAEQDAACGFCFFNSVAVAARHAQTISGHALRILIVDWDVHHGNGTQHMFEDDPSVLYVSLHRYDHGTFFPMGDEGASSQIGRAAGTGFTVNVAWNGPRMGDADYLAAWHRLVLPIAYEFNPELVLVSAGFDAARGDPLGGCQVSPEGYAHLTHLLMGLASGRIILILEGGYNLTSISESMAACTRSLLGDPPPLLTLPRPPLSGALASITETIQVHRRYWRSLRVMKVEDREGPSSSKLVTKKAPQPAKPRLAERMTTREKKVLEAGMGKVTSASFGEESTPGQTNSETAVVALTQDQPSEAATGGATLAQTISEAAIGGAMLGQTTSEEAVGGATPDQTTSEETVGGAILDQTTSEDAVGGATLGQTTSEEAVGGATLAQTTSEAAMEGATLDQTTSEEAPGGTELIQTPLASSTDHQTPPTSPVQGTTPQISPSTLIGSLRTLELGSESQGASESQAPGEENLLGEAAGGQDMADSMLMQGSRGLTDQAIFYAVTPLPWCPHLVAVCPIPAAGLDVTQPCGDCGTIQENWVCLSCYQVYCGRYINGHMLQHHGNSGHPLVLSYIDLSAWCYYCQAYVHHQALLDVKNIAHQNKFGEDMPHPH

IC50 [1] [nM] | IC50 [2] [nM] | MS (in mouse) [3] | MS (in human) [4] | Structure (SMILES)
75.4 | 2850 | – | – | COc1cccc(Cn2cc3cc(F)c(C(=O)NO)cc3n2)c1 [Compound 90, 2-(3-Methoxybenzyl)-5-fluoro-2H-indazole-6-carboxylic acid hydroxyamide]
1.8 | 967 | – | – | COc1cccc(Cn2cc3ccc(C(=O)NO)cc3n2)c1 [Compound 70, 2-(3-Methoxybenzyl)-2H-indazole-6-carboxylic acid hydroxyamide]
4.2 | 870 | – | – | O=C(NO)c1ccc2cn(Cc3ccc4ccccc4c3)nc2c1 [Compound 58, 2-Naphthalen-2-ylmethyl-2H-indazole-6-carboxylic acid hydroxyamide]
4.4 | 1020 | – | – | O=C(NO)c1ccc2cn(Cc3cccc(OC(F)(F)F)c3)nc2c1 [Compound 56, 2-(3-Trifluoromethoxybenzyl)-2H-indazole-6-carboxylic acid hydroxyamide]
7.4 | 699 | – | – | Cc1ccc(Cn2cc3ccc(C(=O)NO)cc3n2)cc1 [Compound 52, 2-(4-Methylbenzyl)-2H-indazole-6-carboxylic acid hydroxyamide]
3.4 | 593 | – | – | O=C(NO)c1ccc2cn(Cc3ccc(Br)cc3)nc2c1 [Compound 55, 2-(4-Bromobenzyl)-2H-indazole-6-carboxylic acid hydroxyamide]
4.7 | 1100 | – | – | COc1ccc(CCn2cc3ccc(C(=O)NO)cc3n2)cc1 [Compound 60, 2-(2-4-Methoxyphenylethyl)-2H-indazole-6-carboxylic acid hydroxyamide]
2.7 | 776 | 40.8 | 49.3 | O=C(NO)c1ccc2cn(Cc3ccc(Cl)cc3)nc2c1 [Compound 54, 2-(4-Chlorobenzyl)-2H-indazole-6-carboxylic acid hydroxyamide]
1.8 | 1130 | – | – | O=C(NO)c1ccc2cn(Cc3cccc(F)c3)nc2c1 [Compound 66, 2-(3-Fluorobenzyl)-2H-indazole-6-carboxylic acid hydroxyamide]
5.9 | 932 | 71.3 | 85.9 | O=C(NO)c1ccc2cn(Cc3ccc(F)cc3)nc2c1 [Compound 53, 2-(4-Fluorobenzyl)-2H-indazole-6-carboxylic acid hydroxyamide]
6.7 | 1520 | – | – | O=C(NO)c1ccc2cn(CCc3ccc(F)cc3)nc2c1 [Compound 65, 2-(2-4-Fluorophenylethyl)-2H-indazole-6-carboxylic acid hydroxyamide]
30.3 | 2370 | – | – | O=C(NO)c1cc2nn(Cc3cccc(Cl)c3)cc2cc1F [Compound 89, 2-(3-chlorobenzyl)-5-fluoro-2H-indazole-6-carboxylic acid hydroxyamide]
5.4 | 765 | 98.6 | 76.7 | COc1ccc(Cn2cc3ccc(C(=O)NO)cc3n2)cc1 [Compound 51, 2-(4-Methoxybenzyl)-2H-indazole-6-carboxylic acid hydroxyamide]
74.3 | 3840 | – | – | O=C(NO)c1cc2nn(Cc3ccccc3)cc2cc1F [Compound 88, 2-Benzyl-5-fluoro-2H-indazole-6-carboxylic acid hydroxyamide]
3.3 | 738 | – | – | O=C(NO)c1ccc2cn(Cc3cccc(C(F)(F)F)c3)nc2c1 [Compound 68, 2-(3-Trifluoromethylbenzyl)-2H-indazole-6-carboxylic acid hydroxyamide]
4.1 | 500 | – | – | O=C(NO)c1ccc2cn(Cc3ccc(OC(F)F)cc3)nc2c1 [Compound 62, 2-(4-Difluoromethoxybenzyl)-2H-indazole-6-carboxylic acid hydroxyamide]
13.5 | 2120 | – | – | O=C(NO)c1ccc2cn(Cc3cccc(OCc4ccccc4)c3)nc2c1 [Compound 71, 2-(3-Benzyloxybenzyl)-2H-indazole-6-carboxylic acid hydroxyamide]
3.8 | 814 | – | – | COc1cc(Cn2cc3ccc(C(=O)NO)cc3n2)cc(OC)c1 [Compound 72, 2-(3,5-Dimethoxybenzyl)-2H-indazole-6-carboxylic acid hydroxyamide]
3.9 | 877 | – | – | O=C(NO)c1ccc2cn(Cc3cc(F)cc(F)c3)nc2c1 [Compound 61, 2-(3,5-Difluorobenzyl)-2H-indazole-6-carboxylic acid hydroxyamide]
29.3 | 2860 | – | – | CC(C)c1ccc(Cn2cc3ccc(C(=O)NO)cc3n2)cc1 [Compound 64, 2-(4-Isopropylbenzyl)-2H-indazole-6-carboxylic acid hydroxyamide]
3.6 | 1290 | – | – | O=C(NO)c1ccc2cn(Cc3ccc(-c4ccccc4)cc3)nc2c1 [Compound 63, 2-Biphenyl-4-ylmethyl-2H-indazole-6-carboxylic acid hydroxyamide]
5.5 | 1070 | – | – | O=C(NO)c1ccc2cn(Cc3ccc(OC(F)(F)F)cc3)nc2c1 [Compound 57, 2-(4-Trifluoromethoxybenzyl)-2H-indazole-6-carboxylic acid hydroxyamide]
22.8 | 2000 | – | – | O=C(NO)c1ccc2cn(Cc3cccc(Oc4ccccc4)c3)nc2c1 [Compound 73, 2-(3-Phenoxybenzyl)-2H-indazole-6-carboxylic acid hydroxyamide]
2.6 | 1320 | 79.3 | 97.6 | O=C(NO)c1ccc2cn(Cc3ccccc3)nc2c1 [Compound 50, 2-Benzyl-2H-indazole-6-carboxylic acid hydroxyamide]
1.3 | 8390 | – | – | O=C(NO)c1ccc2cn(Cc3cccc(Cl)c3)nc2c1 [Compound 67, 2-(3-Chlorobenzyl)-2H-indazole-6-carboxylic acid hydroxyamide]
4 | 1170 | – | – | O=C(NO)c1ccc2cn(CCc3ccccc3)nc2c1 [Compound 59, 2-Phenethyl-2H-indazole-6-carboxylic acid hydroxyamide]
3 | 598 | – | – | O=C(NO)c1ccc2cn(Cc3ccc(C(F)(F)F)cc3)nc2c1 [Compound 69, 2-(4-Trifluoromethylbenzyl)-2H-indazole-6-carboxylic acid hydroxyamide]
